Assay [1] concerns the target T1, recombinant human PKLR (Homo sapiens, UniProt P30613).
T1 construct: His (N); purchased R&D Systems
The assay is described as follows: Human PKLR activation assay (Kinase-Glo Plus luminescence, ATP generated). Format: biochemical. The following applies: * = repeat experiments; for EC50: activation of N-terminal His-tagged hPKLR, 4-parameter logistic fit; for Emax: read-out: hPKLR Emax. How it is done:
Biological Example 2—Human PKLR Activation Assay
Measuring In Vitro Activation of Recombinant Human PKLR
Compound activation of recombinant human PKLR pyruvate kinase activity was determined by biochemical assay. N-terminal His-tagged enzyme was sourced from R&D Systems and its substrates phosphoenolpyruvate (PEP) and ADP from Sigma-Aldrich and 2Bscientific Ltd, respectively. The Kinase-Glo® Plus luminescence assay was from Promega. All other reagents were from Sigma-Aldrich. Test Compounds were prepared as 10 mM DMSO stocks and dilution series prepared in DMSO for direct dilution into Assay Buffer comprising 50 mM imidazole, 50 mM KCl, 7 mM MgCl2, 0.01% Tween20, 0.05% BSA (pH 7.2).
Human PKLR was diluted into Assay Buffer to a final concentration of 5 μM. Enzyme-Assay Buffer mix was dispensed into 384-well shallow-well white-walled plates and Test Compounds added by acoustic dispense (Echo®, Labcyte Inc). Following 10 minutes' incubation at room temperature, the enzyme reaction was initiated by acoustic dispensing of ADP+PEP substrate to final concentrations of 254 μM ADP and 53 μM […].
(§1) After 60 minutes' incubation on an orbital shaker (300 rpm, 26° C.), enzyme activity was quantified by the luminescent detection of generated ATP. Kinase-Glo® Plus reagent was added to each well and the plates incubated for a further 15 minutes on an orbital shaker in the dark (300 rpm, 26° C.) before luminescence measurement on a plate reader (PHERAstar® FSX, BMG Labtech).
(§2) Percentage activation was calculated by normalising […] signals to plate LOW (DMSO vehicle) and HIGH (5 μM TEPP-46) controls. EC50 and Emax values were determined from 4-parameter logistic fits of compound concentration-response curves.
(In general: In Kinase-Glo more light means more ATP remaining.)

The target of assay [2] is T2, recombinant human PKM2 (Homo sapiens, UniProt P14618).
T2 construct: His (N); purchased R&D Systems
T2 sequence (P14618 whole entry): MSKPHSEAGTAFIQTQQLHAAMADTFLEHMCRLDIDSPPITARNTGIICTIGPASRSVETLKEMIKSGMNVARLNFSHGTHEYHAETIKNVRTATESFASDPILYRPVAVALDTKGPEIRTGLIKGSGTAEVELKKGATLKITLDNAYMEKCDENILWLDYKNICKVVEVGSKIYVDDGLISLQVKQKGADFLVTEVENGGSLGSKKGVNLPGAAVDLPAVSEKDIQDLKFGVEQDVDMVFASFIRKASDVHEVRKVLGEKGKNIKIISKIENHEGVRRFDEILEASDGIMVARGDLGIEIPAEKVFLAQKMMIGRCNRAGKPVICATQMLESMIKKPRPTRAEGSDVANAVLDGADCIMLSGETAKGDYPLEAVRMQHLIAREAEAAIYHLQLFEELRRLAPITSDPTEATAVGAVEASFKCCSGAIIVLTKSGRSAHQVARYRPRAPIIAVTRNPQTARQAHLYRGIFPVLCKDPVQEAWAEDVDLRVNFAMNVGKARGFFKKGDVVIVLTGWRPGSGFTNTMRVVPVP
Briefly: Human PKM2 activation assay (Kinase-Glo Plus luminescence, ATP generated). It is filed as biochemical. The settings on record: * = repeat experiments; for EC50: activation of N-terminal His-tagged hPKM2, 4-parameter logistic fit; for Emax: read-out: hPKM2 Emax. The method, then: Measuring In Vitro Activation of Recombinant Human PKM2
Compound activation of recombinant human PKM2 pyruvate kinase activity was determined by biochemical assay. N-terminal His-tagged hPKM2 was sourced from R&D Systems and its substrates phosphoenolpyruvate (PEP) and ADP from Sigma-Aldrich and 2Bscientific Ltd, respectively. The Kinase-Glo® Plus luminescence assay was from Promega. All other reagents were from Sigma-Aldrich. Test Compounds were prepared as 10 mM DMSO stocks and dilution series prepared in DMSO for direct dilution into Assay Buffer comprising 50 mM imidazole, 50 mM KCl, 7 mM MgCl2, 0.01% Tween20, 0.05% BSA (pH 7.2).
Human PKM2 was diluted into Assay Buffer comprising 50 mM imidazole, 50 mM KCl, 7 mM MgCl2, 0.01% Tween20, 0.05% BSA (pH 7.2) to a final concentration of […]. Enzyme-Assay Buffer mix was dispensed into a 384-well shallow-well white-walled plate (PerkinElmer) and Test Compounds added by acoustic dispense (Echo®, Labcyte Inc.).
as §1, §2

For assay [3], the target named is T3, pyruvate kinase in human CD4+ T cell lysates (Homo sapiens, UniProt P14618).
T3 construct: endogenous in cells; host or cells: primary human CD4+ T cells
T3 sequence (P14618 2-531 limits assumed): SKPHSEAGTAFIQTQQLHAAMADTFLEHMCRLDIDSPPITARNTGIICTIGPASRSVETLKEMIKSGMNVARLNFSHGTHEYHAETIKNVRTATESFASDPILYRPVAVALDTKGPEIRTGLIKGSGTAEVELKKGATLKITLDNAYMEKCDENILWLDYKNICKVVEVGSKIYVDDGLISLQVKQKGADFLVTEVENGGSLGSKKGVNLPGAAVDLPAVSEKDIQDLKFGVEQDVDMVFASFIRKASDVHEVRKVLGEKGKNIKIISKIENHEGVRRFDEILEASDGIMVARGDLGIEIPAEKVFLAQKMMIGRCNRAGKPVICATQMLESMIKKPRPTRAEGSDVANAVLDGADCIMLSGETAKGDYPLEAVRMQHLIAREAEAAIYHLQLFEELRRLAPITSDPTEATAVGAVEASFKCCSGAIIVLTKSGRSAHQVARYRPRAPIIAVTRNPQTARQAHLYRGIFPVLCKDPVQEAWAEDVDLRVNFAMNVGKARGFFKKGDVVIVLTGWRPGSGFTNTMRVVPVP
Briefly: CD4+ T cell pyruvate kinase assay (PK activity in lysates of compound-treated cells). Format: cell-based. The following applies: primary human CD4+ T cells incubated with compound 20 minutes, washed, lysed; ΔAbsorbance OD570 nm. The method, then:
Measuring Pyruvate Kinase (PK) Activity in Human CD4+ T Cell Lysates
Compound activation of pyruvate kinase in human CD4+ T cell lysates was determined by biochemical assay. Primary CD4+ T cells were used rather than cancer cell lines to improve the disease relevance of the assay. The PK assay was sourced from Abcam. All other reagents were sourced from ThermoFisher. Test compounds were prepared as 10 mM DMSO stocks and dilution series prepared in DMSO for addition to intact CD4+ T cells cultured in RPMI media containing 10% FBS.
Human CD4+ T cells were incubated with compound for 20 minutes and then washed twice in 1×PBS before resuspension in Abcam PK lysis buffer to prepare cell lysates. 10 μl PK assay Reaction Mix was added per well, including OXIRED™ PROBE. The plates were read using a BMG Labtech Pherastar plate reader at OD570 nm in kinetic mode for […] (25 cycles of 2 minutes) at 25° C., protecting from light.
Plates were blank-subtracted and ΔAbsorbance calculated by subtracting the first plate read within the linear range from the plate read at the timepoint of interest. PK activity is expressed as ΔAbsorbance and plotted against log [Compound].

Where [4] appears, read: percentage activation normalised to DMSO (LOW) and 5 μM TEPP-46 (HIGH).

Where “and” joins values, the source holds several entries; their conditions need not be identical. Equal entries are not always repeated.

T1 sequence (P30613 whole entry): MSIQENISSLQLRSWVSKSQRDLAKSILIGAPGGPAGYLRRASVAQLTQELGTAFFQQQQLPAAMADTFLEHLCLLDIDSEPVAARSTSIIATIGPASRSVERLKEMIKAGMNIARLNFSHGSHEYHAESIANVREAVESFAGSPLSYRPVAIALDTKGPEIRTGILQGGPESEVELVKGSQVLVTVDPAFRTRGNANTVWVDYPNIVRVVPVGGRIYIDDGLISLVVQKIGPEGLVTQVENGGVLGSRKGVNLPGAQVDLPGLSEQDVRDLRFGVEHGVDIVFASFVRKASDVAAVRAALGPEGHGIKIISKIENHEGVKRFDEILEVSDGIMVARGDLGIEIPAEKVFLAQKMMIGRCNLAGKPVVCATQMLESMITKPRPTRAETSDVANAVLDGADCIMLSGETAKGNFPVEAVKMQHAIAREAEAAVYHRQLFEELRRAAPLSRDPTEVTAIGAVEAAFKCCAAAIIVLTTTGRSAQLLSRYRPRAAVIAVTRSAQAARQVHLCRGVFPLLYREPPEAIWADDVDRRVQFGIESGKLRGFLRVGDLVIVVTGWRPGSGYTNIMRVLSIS

As usually defined, the EC50 is the concentration giving half of the maximal effect. As a reminder, the Emax is the maximal effect, on the per cent scale that the assay sets. `Cn1cc(S(=O)(=O)c2ccc3c(=O)n(Cc4cc5n(n4)CCO5)ncc3c2)cn1` [Example 5, 2-((2,3-dihydropyrazolo[5,1-b]oxazol-6-yl)methyl)-6-((1-methyl-1H-pyrazol-4-yl)sulfonyl)phthalazin-1(2H)-one]: the EC50 in assay [1] is 23.3 nM and 27.6 nM; in assay [2], 98.9 nM and 207 nM; in assay [3] it was 93 nM. Besides, in assay [1] (setting [4]), the “hPKLR Emax” value is on record as 128* %. Besides, the Emax in assay [1] (setting [4]) came out at 121%; in assay [2] (setting [4]), 110%. Moreover, the “hPKM2 Emax” value in assay [2] (setting [4]) is recorded as 104* %.
As to `O=c1c2ccc(S(=O)(=O)c3cn[nH]c3)cc2cnn1Cc1cc2n(n1)CCO2` [Example 4, 6-((1H-pyrazol-4-yl)sulfonyl)-2-((2,3-dihydropyrazolo[5,1-b]oxazol-6-yl)methyl)phthalazin-1(2H)-one], the results for the EC50 in assay [1], in assay [2] and in assay [3] were 6.4 nM, 51 nM and 125 nM, respectively. Besides, the values for the Emax in assay [1] (setting [4]) and in assay [2] (setting [4]) were 122% and 91%, respectively.
The like results for `O=c1c2ccc(S(=O)(=O)c3cnn(C(F)F)c3)cc2cnn1Cc1cc[nH]n1` [Example 2, 2-((1H-pyrazol-3-yl)methyl)-6-((1-(difluoromethyl)-1H-pyrazol-4-yl)sulfonyl)phthalazin-1(2H)-one] were, in that order, 33.1 nM, 104 nM, 168 nM, 123% and 100%.
The like results for `COc1ccc(Cn2ncc3cc(S(=O)(=O)c4cn[nH]c4)ccc3c2=O)nc1` [Example 1, 6-((1H-pyrazol-4-yl)sulfonyl)-2-((5-methoxypyridin-2-yl)methyl)phthalazin-1(2H)-one] were, in that order, 16 nM, 114 nM, 97 nM, 119% and 111%.
For `O=c1c2ccc(S(=O)(=O)c3cnn(CCO)c3)cc2cnn1Cc1ccc2c(n1)CCO2` [Example 3, 2-((2,3-dihydrofuro[3,2-b]pyridin-5-yl)methyl)-6-((1-(2-hydroxyethyl)-1H-pyrazol-4-yl)sulfonyl)phthalazin-1(2H)-one], in that order: 6.6 nM, 50 nM, 70 nM, 118% and 108%.
As to `Cc1[nH]nc(Cn2ncc3cc(S(=O)(=O)c4cc[nH]n4)ccc3c2=O)c1Cl` [Example 6, 6-((1H-pyrazol-3-yl)sulfonyl)-2-((4-chloro-5-methyl-1H-pyrazol-3-yl)methyl)phthalazin-1(2H)-one], the EC50 in assay [2] was found to be 43 nM; in assay [3], 94 nM. For the same compound, in assay [2] (setting [4]), the Emax turned out to be 94%.

These data come from patent publication US12448367B2, “Phthalazine derivatives as pyruvate kinase modulators” (Sitryx Therapeutics Limited, priority 2022, dated 2025).
